According to patent publication US20260297042A1, “BIARYLAMIDE DERIVATIVES AND THEIR USE AS PKMYT1 INHIBITORS” (CANCER RESEARCH TECHNOLOGY LIMITED, priority 2023, published 2026):

Assays:
Human PKMYT1 = molecular target: T1, Human PKMYT1 (Homo sapiens, UniProt Q99640); experiment: PKMYT1 biochemical ADP-Glo enzymatic assay; details: ADP-Glo
T1 construct: Human PKMYT1 75-362 was cloned as a TEV cleavable 6xHis fusion; 6xHis (TEV cleavable) (cleaved yes); made in house; host or cells: bacterial cells
T1 sequence (Q99640 75-362): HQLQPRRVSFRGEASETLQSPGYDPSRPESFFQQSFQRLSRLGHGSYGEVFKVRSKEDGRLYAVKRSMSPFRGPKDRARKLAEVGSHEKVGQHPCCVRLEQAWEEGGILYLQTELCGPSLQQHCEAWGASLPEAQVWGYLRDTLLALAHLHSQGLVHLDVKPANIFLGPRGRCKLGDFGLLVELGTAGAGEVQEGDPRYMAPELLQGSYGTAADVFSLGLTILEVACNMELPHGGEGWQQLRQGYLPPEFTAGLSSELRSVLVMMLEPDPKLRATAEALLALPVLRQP
Summary of the method: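 IC50 derived from luminescence (ADP-Glo Max) after PKMYT1 kinase domain, 15 nM, turned over 500 µM ATP for 60 min at 26 °C. Buffer contained 10 mM MgCl2, 1 mM EGTA and 0.01% Brij-35 at pH 7.5.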

WEE1 = molecular target: T2, WEE1 (Homo sapiens, UniProt P30291); experiment: Selectivity versus WEE1 assay (ADP-Glo enzymatic assay); format: biochemical; details: for IC50: ADP-Glo; for PKMYT1 vs. WEE1 selectivity: fold difference in selectivity for PKMYT1 over WEE1
T2 construct: purchased Thermo Fisher PR7373A
Summary of the method: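 Inhibition is measured as reduced ADP production, detected by luminescence with ADP-Glo, after enzyme (15 nM) and 30 µM ATP react for 60 min at 26° C in 1% DMSO-containing HEPES buffer, pH 7.5. Data are accepted only if replicate IC50s fall within 3-fold and r2 exceeds 0.9.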

[1] = 15 nM PKMYT1 kinase domain, 500 µM ATP, 60 minutes at 26° C., banded
[2] = 15 nM WEE1, 60 minutes at 26° C., banded
[3] = banded, ">N" = at least in this band but could be higher
[4] = PKMYT1 kinase domain 15 nM, banded values

T2 sequence (P30291 whole entry): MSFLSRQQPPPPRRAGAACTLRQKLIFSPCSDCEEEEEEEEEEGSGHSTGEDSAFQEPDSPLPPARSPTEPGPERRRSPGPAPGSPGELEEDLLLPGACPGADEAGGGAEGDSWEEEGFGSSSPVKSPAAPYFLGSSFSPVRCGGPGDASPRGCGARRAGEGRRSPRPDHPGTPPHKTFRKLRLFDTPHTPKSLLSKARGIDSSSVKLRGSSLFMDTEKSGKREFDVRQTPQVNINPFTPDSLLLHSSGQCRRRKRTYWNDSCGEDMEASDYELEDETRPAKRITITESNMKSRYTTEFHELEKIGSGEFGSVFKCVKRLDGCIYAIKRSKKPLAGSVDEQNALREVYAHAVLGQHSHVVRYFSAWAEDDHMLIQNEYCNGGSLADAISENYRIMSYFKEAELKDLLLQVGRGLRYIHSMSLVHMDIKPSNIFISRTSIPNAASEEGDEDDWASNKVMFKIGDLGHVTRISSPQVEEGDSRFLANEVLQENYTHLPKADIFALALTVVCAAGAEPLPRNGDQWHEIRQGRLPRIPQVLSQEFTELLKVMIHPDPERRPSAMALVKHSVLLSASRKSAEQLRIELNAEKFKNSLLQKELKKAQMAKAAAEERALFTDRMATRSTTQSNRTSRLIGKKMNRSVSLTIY

IC50 (Human PKMYT1; [1]) [nM] | IC50 (WEE1; [2]) [nM] | PKMYT1 vs. WEE1 selectivity (WEE1; [3]) | IC50 (Human PKMYT1; [4]) [nM] | IC50 (WEE1; WEE1 15 nM, banded values) [nM] | PKMYT1 vs. WEE1 selectivity (WEE1; banded) | Compound
< 50 | > 11000 | Y (1000-5000 fold) | – | – | – | Cc1ccc(O)c(C)c1NC(=O)c1cnc(Nc2ccn(CC(=O)N3CCC3)n2)s1 [BAA-175, 2-[[1-[2-(azetidin-1-yl)-2-oxo-ethyl]pyrazol-3-yl]amino]-N-(3-hydroxy-2,6-dimethyl-phenyl)thiazole-5-carboxamide]
< 50 | > 11000 | Y (1000-5000 fold) | – | – | – | Cc1ccc(O)c(C)c1NC(=O)c1cnc(Nc2ccn(CC(=O)N(C)C)n2)s1 [BAA-117, 2-[[1-[2-(Dimethylamino)-2-oxo-ethyl]pyrazol-3-yl]amino]-N-(3-hydroxy-2,6-dimethyl-phenyl)thiazole-5-carboxamide]
– | – | – | 50 to 1000 | > 11000 | X (100-<1000 fold) | Cc1ccc(O)c(C)c1NC(=O)c1cnc(Nc2nc3ccccc3s2)s1 [BAA-442, 2-(benzo[d]thiazol-2-ylamino)-N-(3-hydroxy-2,6-dimethylphenyl)thiazole-5-carboxamide]
50 to 1000 | > 11000 | >X (100-<1000 fold) | – | – | – | Cc1ccc(O)c(C)c1NC(=O)c1cnc(Nc2ccn([C@@H]3CCN(CCc4ccccc4)C3)n2)s1 [BAA-115]

Further lines, the compound ahead of its results:

Compound | IC50 (Human PKMYT1; [1]) [nM] | IC50 (WEE1; [2]) [nM] | PKMYT1 vs. WEE1 selectivity (WEE1; [3]) | IC50 (Human PKMYT1; [4]) [nM] | IC50 (WEE1; WEE1 15 nM, banded values) [nM] | PKMYT1 vs. WEE1 selectivity (WEE1; banded)
Cc1ccc(C(=O)Nc2ccc(Nc3ncc(C(=O)Nc4c(C)ccc(O)c4C)s3)nc2)c(C)c1 [BAA-297, 2-((5-(2,4-dimethylbenzamido)pyridin-2-yl)amino)-N-(3-hydroxy-2,6-dimethylphenyl)thiazole-5-carboxamide] | 50 to 1000 | > 11000 | Y (1000-5000 fold) | – | – | –
Cn1ccc(Nc2ncc(C(=O)Nc3c(Cl)ccc(O)c3F)s2)n1 [BAA-479, N-(6-Chloro-2-fluoro-3-hydroxyphenyl)-2-((1-methyl-1H-pyrazol-3-yl)amino)thiazole-5-carboxamide] | – | – | – | 50 to 1000 | > 11000 | W (10-<100 fold)
CCN(CCS(C)(=O)=O)C(=O)Cn1cc(C)c(Nc2ncc(C(=O)Nc3c(C)ccc(O)c3C)s2)n1 [BAA-555, 2-((1-(2-(ethyl(2-(methylsulfonyl)ethyl)amino)-2-oxoethyl)-4-methyl-1H-pyrazol-3-yl)amino)-N-(3-hydroxy-2,6-dimethylphenyl)thiazole-5-carboxamide] | – | – | – | < 50 | 1000 to 11000 | Y (1000-5000 fold)
Cc1ccc(O)c(C)c1NC(=O)c1cnc(Nc2nc(C)c(Br)c(C)n2)s1 [BAA-295, 2-((5-bromo-4,6-dimethylpyrimidin-2-yl)amino)-N-(3-hydroxy-2,6-dimethylphenyl)thiazole-5-carboxamide] | 50 to 1000 | > 11000 | Y (1000-5000 fold) | – | – | –
Cc1ccc(O)c(C)c1NC(=O)c1cnc(NCCCN2CCOCC2)s1 [BAA-065, N-(3-hydroxy-2,6-dimethyl-phenyl)-2-(3-morpholinopropylamino)thiazole-5-carboxamide] | 50 to 1000 | > 11000 | >X (100-<1000 fold) | – | – | –
CCc1c(O)ccc(C)c1NC(=O)c1cnc(Nc2ccn(CC(=O)N3CCCC3)n2)s1 [BAA-475, N-(2-ethyl-3-hydroxy-6-methylphenyl)-2-((1-(2-oxo-2-(pyrrolidin-1-yl)ethyl)-1H-pyrazol-3-yl)amino) thiazole-5-carboxamide] | – | – | – | < 50 | > 11000 | Y (1000-5000 fold)
CCOC(=O)c1oc(Nc2ncc(C(=O)Nc3c(C)ccc(O)c3C)s2)nc1C [BAA-446, ethyl 2-((5-((3-hydroxy-2,6-dimethylphenyl)carbamoyl)thiazol-2-yl)amino)-4-methyloxazole-5-carboxylate] | – | – | – | 50 to 1000 | > 11000 | X (100-<1000 fold)
Cc1ccc(O)c(C)c1NC(=O)c1cnc(Nc2ncccc2Cl)s1 [BAA-400, 2-((3-chloropyridin-2-yl)amino)-N-(3-hydroxy-2,6-dimethylphenyl)thiazole-5-carboxamide] | – | – | – | < 50 | 1000 to 11000 | X (100-<1000 fold)
